Laboratory results: US10478425B2, “5-phenylazaindole derivative having AMPK-activating activity” (Shionogi & Co., Ltd., priority 2016, dated 2019)

What was measured:
[1] = system: phosphorylation of endogenous acetyl-CoA carboxylase (ACC) in L6-GLUT4myc myoblasts; assay: Test Example 3: cell-based ELISA of ACC (Ser79) phosphorylation for AMPK activation in L6-GLUT4myc myoblasts; conditions: for EC (150% of control): concentration causing 150% relative to vehicle control (100%), 3 hours, phospho-ACC; for Emax: maximum response within varying concentrations, vehicle control = 100%
Procedure: Cell-based assay for AMPK activation potency of compounds was performed with L6-GLUT4myc myoblasts (J. Biol. Chem. 278:17953-62, 2003) in a 96-well or 384-well plate by detecting the phosphorylation of endogenous acetyl-CoA carboxylase (ACC) using cell-based ELISA method. The cells were seeded in a 96-well plate at a density of 2×10^4 cells per well or in a 384-well plate at a density of 3.5×10^3 cells per well in minimum essential media (α-MEM) supplemented with 10% fetal bovine serum, 100 U/mL penicillin, 100 μg/mL streptomycin, 2 μg/mL blasticidin S hydrochloride and 0.5 mg/mL G418 disulfate, and maintained in a humidified atmosphere of 95% air and 5% CO2 at 37° C. for 24 hours. Following the overnight culture with an assay buffer consisting of 0.1% bovine serum albumin (BSA), 100 U/mL penicillin and 100 μg/mL streptomycin, cells were treated with varying concentrations of compounds or vehicle (dimethyl sulfoxide at a final concentration of 0.33%) in the presence of 0.1% BSA or 4% BSA for 3 hours at room temperature. After fixing cells with ice-cold 4% formaldehyde in Tris-buffered saline (TBS) for 30 min, the fixed cells were rinsed with TBS containing 0.1% or 0.01% Triton X-100 (TBS-T) and quenched with 0.6% hydrogen peroxide in TBS-T, and blocked with a blocking reagent (Blocking One P manufactured by Nacalai Tesque). Then, anti-phospho-ACC (Ser79) antibody as the primary antibody (manufactured by Cell Signaling Technology) diluted with TBS-T containing 5% Blocking One P was added to each well and the plate was incubated overnight at 4° C. After rinsing each well with TBS-T, horseradish peroxidase (HRP)-conjugated anti-rabbit IgG as the secondary antibody diluted with TBS-T containing 5% Blocking One P was added to each well and the plate was incubated for 1 hour in 96-well plate or for 5 hours in 384-well plate at room temperature. Each well of the plate was rinsed with TBS-T and added a chemiluminescent reagent (ImmunoStar® LD manufactured by Wako Pure Chemical Industries) for detection of HRP conjugates. Ten minutes later, the luminescence intensity was measured using luminometer (ViewLux or ARVO manufactured by PerkinElmer). The luminescence in the presence of compound was calculated as the rate of change relative to vehicle control, which is in the absence of compound.

Human AMPK α2β2γ1 = molecular target: T1, Human AMPK α2β2γ1 (Homo sapiens, UniProt O43741+P54646); assay: Test Example 2: activation of phosphorylated human AMPK α2β2γ1 (mobility-shift kinase assay, FL-Peptide 7); type: biochemical; conditions: for EC150: compound concentration showing 150% relative to the control (100%), human AMPK α2β2γ1 phosphorylated with CaMKK2; for Emax: maximum rate of increase in activity within the measurement range, control = 100%, read-out: Emax
T1 construct: The full length cDNAs of human AMPK β2 (NM_005399.3) and human AMPK α2 (NM_006252.3); The full length cDNAs of human AMPK β2 (NM_005399.3); the full length cDNA of human AMPK γ1 (NM_002733.3) had been inserted into pET28b(+); 6×His (N); made in house; host or cells: Escherichia coli BL21 CodonPlus (DE3)-RIL
How it was run: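 His-tagged α2β2γ1 expressed in E. coli was pre-phosphorylated by GST-CaMKKβ (25 °C, 1–1.5 h), then exposed to compound for 10 min (1% DMSO). Reaction: pH 7.0 HEPES, ATP and 1.5 μM FL-Peptide 7 (final), 2 h at 25 °C. Mobility-shift conversion gave % activity increase versus compound-free control.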

[2] = BA test (oral absorption); type: in vivo; conditions: rat, plasma; rats; calculated from AUCs of oral and intravenous administration groups
Procedure: • (1) Animals: mice or rats • (2) Animal husbandry: Mice and rats had free access to solid food and sterilized bottled tap water. • (3) Setting of dose and group compositions: orally or intravenously administered at a predetermined dose Group compositions were as shown below. (Dose depends on the compound)
Oral: 1 to 30 mg/kg (n=2 to 3)
Intravenous: 0.5 to 10 mg/kg (n=2 to 3) • (4) Preparation of administration formulation: for oral administration, in a solution or a suspension state; for intravenous administration, in a solubilized state • (5) Dosing procedure: In oral administration study, the test substance was forcibly administered to the stomach by using a gavage tube. In intravenous administration study, the test substance was administered via tail vein using a syringe with a needle. • (6) Evaluation items: Blood was collected at each time point, and plasma concentration of the drug was determined by LC/MS/MS. • (7) Data analysis: Regarding the transition of the plasma concentration, area under the plasma concentration-time curve (AUC) was calculated by means of WinNonlin® program, respectively. Bioavailability (BA) was calculated from AUCs of the oral administration group and intravenous administration group.

T1 sequence (P54646 whole entry): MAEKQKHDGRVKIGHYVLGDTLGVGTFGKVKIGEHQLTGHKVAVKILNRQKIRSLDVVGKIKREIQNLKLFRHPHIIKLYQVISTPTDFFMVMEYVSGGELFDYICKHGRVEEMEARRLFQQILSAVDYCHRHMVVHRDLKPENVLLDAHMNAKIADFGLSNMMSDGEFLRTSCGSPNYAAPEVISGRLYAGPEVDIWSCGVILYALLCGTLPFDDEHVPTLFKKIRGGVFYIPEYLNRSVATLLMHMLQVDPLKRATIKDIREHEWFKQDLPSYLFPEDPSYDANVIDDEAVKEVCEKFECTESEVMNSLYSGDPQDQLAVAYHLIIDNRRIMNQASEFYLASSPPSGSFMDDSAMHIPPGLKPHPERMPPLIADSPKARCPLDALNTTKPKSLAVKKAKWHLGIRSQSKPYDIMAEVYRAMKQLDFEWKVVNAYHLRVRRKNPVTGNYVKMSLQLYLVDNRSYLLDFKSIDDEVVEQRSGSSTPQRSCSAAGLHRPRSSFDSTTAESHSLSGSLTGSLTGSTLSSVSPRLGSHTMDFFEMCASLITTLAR
T1 sequence (O43741 whole entry): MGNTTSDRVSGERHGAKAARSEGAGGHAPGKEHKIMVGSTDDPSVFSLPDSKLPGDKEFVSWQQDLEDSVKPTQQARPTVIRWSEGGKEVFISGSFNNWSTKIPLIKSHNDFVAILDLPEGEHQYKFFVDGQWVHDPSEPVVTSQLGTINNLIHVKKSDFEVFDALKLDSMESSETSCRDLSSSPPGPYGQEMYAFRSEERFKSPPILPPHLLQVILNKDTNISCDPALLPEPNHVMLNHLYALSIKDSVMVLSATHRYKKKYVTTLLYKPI
T1 sequence (P54619 whole entry partner): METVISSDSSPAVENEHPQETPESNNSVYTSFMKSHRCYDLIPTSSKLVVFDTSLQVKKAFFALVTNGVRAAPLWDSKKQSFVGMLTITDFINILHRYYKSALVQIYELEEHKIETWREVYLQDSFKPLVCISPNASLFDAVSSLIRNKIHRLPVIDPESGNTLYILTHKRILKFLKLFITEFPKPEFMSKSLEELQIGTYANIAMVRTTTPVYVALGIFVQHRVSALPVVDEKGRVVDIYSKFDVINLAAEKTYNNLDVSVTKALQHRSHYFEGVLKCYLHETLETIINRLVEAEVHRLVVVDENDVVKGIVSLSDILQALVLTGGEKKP

| SMILES | EC (150% of control) [1] | Emax [1] | EC150 (Human AMPK α2β2γ1) | Emax (Human AMPK α2β2γ1) | bioavailability [2] |
| --- | --- | --- | --- | --- | --- |
| O[C@@H]1CO[C@H]2[C@@H]1OC[C@H]2Oc1cc2nc(-c3ccc([C@@H]4CCCC[C@@H]4O)cc3)c(F)cc2[nH]1 [Compound I-2-18] | 0.164 µM | 612% | 12 nM | 618% | 18.6% |
| O[C@@H]1CO[C@H]2[C@@H]1OC[C@H]2Oc1cc2nc(-c3ccc(-c4ccc(O[C@@H]5CCOC5)cc4)cc3)c(F)cc2[nH]1 [Compound I-2-84] | 0.079 µM | 684% | 4.3 nM | 514% | 52.1% |
| O=C1NCCC1Oc1ccc(-c2ccc(-c3nc4cc(O[C@@H]5CO[C@H]6[C@@H]5OC[C@H]6O)[nH]c4cc3F)cc2)cc1 (stereo partly shown) [Compound I-1-70] | 0.156 µM | 512% |  |  | 25.5% |
| O[C@@H]1CO[C@H]2[C@@H]1OC[C@H]2Oc1cc2nc(-c3ccc(-c4ccc(OC5CCNC5)cc4)cc3)c(F)cc2[nH]1 (stereo partly shown) [Compound I-1-60] | 0.019 µM | 495% | < 0.051 nM | 486% |  |
| CS(C)(=O)=Nc1ccc(-c2ccc(-c3nc4cc(O[C@@H]5CO[C@H](CO)C5)[nH]c4cc3Cl)cc2)cc1 [Compound I-1-02] | 0.0113 µM | 968% | 2.2 nM | 510% |  |
| CS(C)(=O)=Nc1ccc(-c2ccc(-c3nc4cc(O[C@@H]5CO[C@H](CO)C5)[nH]c4cc3F)cc2)cc1 [Compound I-1-47] | 0.0039 µM | 547% | 0.96 nM | 542% |  |
| CC(C)(O)COc1ccc(-c2ccc(-c3nc4cc(O[C@@H]5CO[C@H]6[C@@H]5OC[C@H]6O)[nH]c4cc3F)cc2)cc1 [Compound I-2-13] | 0.16 µM | 650% | 3 nM | 652% | 59% |
| COCCNc1ccc(-c2ccc(-c3nc4cc(O[C@@H]5CO[C@H]6[C@@H]5OC[C@H]6O)[nH]c4cc3F)cc2)cc1 [Compound I-2-31] | 0.134 µM | 656% | 6.8 nM | 478% | 40.5% |
| C[S+]([O-])c1ccc(-c2ccc(-c3nc4cc(O[C@@H]5CO[C@H]6[C@@H]5OC[C@H]6O)[nH]c4cc3F)cc2)cc1 (stereo partly shown) [Compound I-1-64] | 0.021 µM | 509% | 1.6 nM | 375% | 17.8% |
| CC(=O)N1CCC(Oc2ccc(-c3ccc(-c4nc5cc(O[C@@H]6CO[C@H]7[C@@H]6OC[C@H]7O)[nH]c5cc4F)cc3)cc2)C1 (stereo partly shown) [Compound I-1-27] | 0.168 µM | 473% | 5.8 nM | 332% | 19.6% |
| CN1CCC(Oc2ccc(-c3ccc(-c4nc5cc(O[C@@H]6CO[C@H]7[C@@H]6OC[C@H]7O)[nH]c5cc4F)cc3)cc2)C1=O (stereo partly shown) [Compound I-2-32] | 0.086 µM | 531% | 1.3 nM | 379% | 28.6% |
| COCCOc1ccc(-c2ccc(-c3nc4cc(O[C@@H]5CO[C@H]6[C@@H]5OC[C@H]6O)[nH]c4cc3F)cc2)cc1 [Compound I-1-66] | 0.103 µM | 635% | 8.5 nM | 333% | 38.8% |
